The record followed here is PubChem BioAssay AID200 (DTP/NCI, 2004).

In the experiment the test system is B6C3F1 mice, B16 melanoma ip, median survival T/C. The experiment in a line: NCI In Vivo Anticancer Drug Screen. Data for tumor model B16 Melanoma (intraperitoneal) in B6C3F1 mice. The following applies: endpoint: median survival time, higher = longer survival. The gist of the method:
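Values are T/C ratios: the measurement in treated animals divided by that in vehicle-treated controls, using survival or tumor size in mice carrying transplantable tumors.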

Setting [1] is: dose: 6.25 mg/kg/injection, schedule: Q01DX009 (ip), vehicle: saline.
Setting [2] is: dose: 12.5 mg/kg/injection, schedule: Q01DX009 (ip), vehicle: saline.
Setting [3] is: dose: 25.0 mg/kg/injection, schedule: Q01DX009 (ip), vehicle: saline.
Setting [4] is: dose: 12.5 mg/kg/injection, schedule: Q01DX009 (ip), vehicle: saline with Tween-80.
Setting [5] is: dose: 25.0 mg/kg/injection, schedule: Q01DX009 (ip), vehicle: saline with Tween-80.
[6] abbreviates: dose: 50.0 mg/kg/injection, schedule: Q01DX009 (ip), vehicle: saline with Tween-80.
The mark [7] stands for this setting: dose: 100.0 mg/kg/injection, schedule: Q01DX009 (ip), vehicle: saline with Tween-80.
[8] abbreviates: dose: 200.0 mg/kg/injection, schedule: Q01DX009 (ip), vehicle: saline with Tween-80.
The mark [9] stands for this setting: dose: 50.0 mg/kg/injection, schedule: Q01DX009 (ip), vehicle: saline.
Where [10] appears, read: dose: 100.0 mg/kg/injection, schedule: Q01DX009 (ip), vehicle: saline.
Where [11] appears, read: dose: 200.0 mg/kg/injection, schedule: Q01DX009 (ip), vehicle: saline.
Where [12] appears, read: dose: 400.0 mg/kg/injection, schedule: Q01DX009 (ip), vehicle: saline.
The mark [13] stands for this setting: dose: 25.0 mg/kg/injection, schedule: Q01DX009 (ip), vehicle: Klucel (hydroxypropylcellulose) (HPC).
The mark [14] stands for this setting: dose: 400.0 mg/kg/injection, schedule: Q01DX009 (ip), vehicle: saline with Tween-80.

The structures appear in SMILES notation. Several values for one entry are separate records, joined by “and”; a condition that tells them apart may be missing. Equal entries are not always repeated. Inconclusive results and toxic doses are left out. *1 amine or outer side, *2 acyl side, *3 side chain or, on linkers, in order; H or OH if unused. Where a SMILES comes first, the peptide text is derived from it. [ ]: non-standard residue; d: D form. The star is where a group is joined. X3 = CCC(=O)CC1CC(C)CC(C(=O)[*:2])N1[*:1]; X2 = CCCCCCCCC(C)C(=O)*; Aib = CC(C)(N)C(=O)O; X4 = CC(CN(C)CCO)N*

With `CCC/C=C/C=C/C(=O)OC1/C(=C/C(=O)OC)CC2CC(C(C)O)OC(=O)CC(O)CC3CC(OC(C)=O)C(C)(C)C(O)(CC4C/C(=C/C(=O)OC)CC(/C=C/C(C)(C)C1(O)O2)O4)O3` (stereo not given), the T/C is, setting by setting: (dose: 4.69 micrograms/kg/injection, schedule: Q01DX009 (ip), vehicle: saline + alcohol) 94 % of control; (dose: 9.38 micrograms/kg/injection, schedule: Q01DX009 (ip), vehicle: saline + alcohol) 100 % of control; (dose: 18.75 micrograms/kg/injection, schedule: Q01DX009 (ip), vehicle: saline + alcohol) 116 % of control and 104 % of control; (dose: 37.5 micrograms/kg/injection, schedule: Q01DX009 (ip), vehicle: saline + alcohol) 111 % of control and 96 % of control; (dose: 75.0 micrograms/kg/injection, schedule: Q01DX009 (ip), vehicle: saline + alcohol) 99 % of control and 105 % of control.

For the molecule `COc1ccc(C[C@H](N)C(=O)NC2C(CO)OC(n3cnc4c(N(C)C)ncnc43)C2O)cc1` (stereo not given in full), the T/C is, setting by setting: (dose: 5.0 mg/kg/injection, schedule: Q01DX009 (ip), vehicle: saline) 103 % of control and 105 % of control; (dose: 10.0 mg/kg/injection, schedule: Q01DX009 (ip), vehicle: saline) 114 % of control and 106 % of control; (dose: 20.0 mg/kg/injection, schedule: Q01DX009 (ip), vehicle: saline) 112 % of control and 116 % of control; (dose: 40.0 mg/kg/injection, schedule: Q01DX009 (ip), vehicle: saline) 118 % of control and 122 % of control.

With `c1cc(-c2cc3ccc(C4=NCCN4)cc3[nH]2)ccc1C1=NCCN1`, the T/C was 111 % of control (dose: 3.12 mg/kg/injection, schedule: Q01DX009 (ip), vehicle: saline); 104 % of control (dose: 3.12 mg/kg/injection, schedule: Q01DX009 (ip), vehicle: suspension in saline); 108 % of control under setting [1]; 94 % of control (dose: 6.25 mg/kg/injection, schedule: Q01DX009 (ip), vehicle: suspension in saline); 100 % of control under setting [2]; 96 % of control (dose: 12.5 mg/kg/injection, schedule: Q01DX009 (ip), vehicle: suspension in saline). For the same molecule, the T/C under setting [3] is 95 % of control.

With `CC(=O)O[C@@H]1C(=O)C=C(C)[C@@H]2[C@@H](OC(=O)C=C(C)C)[C@H]3OC(=O)C[C@H]4[C@@H](C)[C@@H](O)[C@]5(O)OC[C@]34[C@H]5[C@@]12C`, the T/C (dose: 1.0 mg/kg/injection, schedule: Q01DX005 (ip), vehicle: distilled water + Tween-80) was 163 % of control; the T/C (dose: 2.0 mg/kg/injection, schedule: Q01DX005 (ip), vehicle: distilled water + Tween-80) was 160 % of control; the T/C (dose: 4.0 mg/kg/injection, schedule: Q01DX009 (ip), vehicle: distilled water + Tween-80) is 155 % of control; the T/C (dose: 8.0 mg/kg/injection, schedule: Q01DX005 (ip), vehicle: distilled water + Tween-80) was 156 % of control; the T/C (dose: 8.0 mg/kg/injection, schedule: Q01DX009 (ip), vehicle: distilled water + Tween-80) is 162 % of control.

`CC[C@H](CC[C@@H](C)C1CC[C@H]2[C@@H]3CC=C4C[C@@H](OP(=O)(N5CC5)N5CC5)CC[C@]4(C)[C@H]3CC[C@]12C)C(C)C` (stereo not given in full): the T/C runs as follows: under setting [4], 95 % of control and 99 % of control; under setting [5], 110 % of control and 101 % of control; under setting [6], 90 % of control and 97 % of control; under setting [7], 91 % of control and 94 % of control; under setting [8], 93 % of control and 95 % of control.

In the case of `CCCCCCCCC(C)C(=O)N1CCCC1C(=O)N1C(CC(=O)CC)CC(C)CC1C(=O)NC(C)C(=O)NC(C)(C)C(=O)NC(C)(C)C(=O)NC(C(=O)NC(C)C(=O)NC(C)(C)C(=O)NC(C)(C)C(=O)NC(C)CN(C)CCO)C(C)CC` (stereo not given) (X2-P[X3]A[Aib][Aib]IA[Aib][Aib]-X4; configuration not given here), the T/C is 98 % of control (dose: 0.15 mg/kg/injection, schedule: Q01DX009 (ip), vehicle: Klucel (hydroxypropylcellulose) (HPC)); 91 % of control (dose: 0.31 mg/kg/injection, schedule: Q01DX009 (ip), vehicle: Klucel (hydroxypropylcellulose) (HPC)); 97 % of control (dose: 0.62 mg/kg/injection, schedule: Q01DX009 (ip), vehicle: Klucel (hydroxypropylcellulose) (HPC)); 89 % of control (dose: 1.25 mg/kg/injection, schedule: Q01DX009 (ip), vehicle: Klucel (hydroxypropylcellulose) (HPC)); 92 % of control (dose: 2.5 mg/kg/injection, schedule: Q01DX009 (ip), vehicle: Klucel (hydroxypropylcellulose) (HPC)); 86 % of control (dose: 5.0 mg/kg/injection, schedule: Q01DX009 (ip), vehicle: Klucel (hydroxypropylcellulose) (HPC)).

With `NC(=O)CCC(N)C(=O)O` (stereo not given), the T/C is 105 % of control under setting [3]; 108 % of control under setting [9]; 103 % of control under setting [10]; 100 % of control under setting [11]; 108 % of control under setting [12].

As for `c1ccc(CN2COc3c(ccc4c3OCN(Cc3ccccc3)C4)C2)cc1`, the T/C runs as follows: under setting [13], 111 % of control; (dose: 50.0 mg/kg/injection, schedule: Q01DX009 (ip), vehicle: Klucel (hydroxypropylcellulose) (HPC)) 96 % of control; (dose: 100.0 mg/kg/injection, schedule: Q01DX009 (ip), vehicle: Klucel (hydroxypropylcellulose) (HPC)) 95 % of control.

As for `C/C(=N\O)C(O)c1ccccc1` (stereo not given), the T/C under setting [7] was 98 % of control, the T/C under setting [8] was 107 % of control and the T/C under setting [14] is 92 % of control.

With `COc1cccc(/C=C/[N+](=O)[O-])c1OC`, the T/C (dose: 3.12 mg/kg/injection, schedule: Q01DX009 (ip), vehicle: Klucel (hydroxypropylcellulose) (HPC)) is 100 % of control; the T/C (dose: 6.25 mg/kg/injection, schedule: Q01DX009 (ip), vehicle: Klucel (hydroxypropylcellulose) (HPC)) was 98 % of control; the T/C (dose: 12.5 mg/kg/injection, schedule: Q01DX009 (ip), vehicle: Klucel (hydroxypropylcellulose) (HPC)) was 94 % of control; the T/C under setting [13] was 96 % of control.

In the case of `O=C(O)C1Cc2nc[nH]c2CN1CO` (stereo not given), the T/C was 104 % of control under setting [4]; 102 % of control under setting [5]; 105 % of control under setting [6]; 109 % of control under setting [7]; 106 % of control under setting [8]; 104 % of control under setting [14].

For the molecule `Nc1cc(Cl)c(N=Nc2ccccc2)c(N)n1`, the T/C is, setting by setting: under setting [7], 89 % of control; under setting [8], 90 % of control.

For the molecule `COc1cccc2c1C(=O)c1c(O)c3c(c(O)c1C2=O)C[C@](O)(C(=O)CO)CC3OC1CC(N)C(OC2CCCCO2)C(C)O1` (stereo not given in full), the T/C was 382 % of control (dose: 1.5 mg/kg/injection, schedule: Q01DX009 (ip), vehicle: water); 172 % of control (dose: 1.56 mg/kg/injection, schedule: Q01DX001 (ip), vehicle: water); 206 % of control and 218 % of control (dose: 3.12 mg/kg/injection, schedule: Q01DX001 (ip), vehicle: water); 222 % of control and 317 % of control (dose: 6.25 mg/kg/injection, schedule: Q01DX001 (ip), vehicle: water); 229 % of control and 264 % of control (dose: 12.5 mg/kg/injection, schedule: Q01DX001 (ip), vehicle: water).

Take `C=C1CCOC2(C(O)C(C)(O)CO)NC(=O)C1(O)NC2=O` (stereo not given): the T/C is 97 % of control under setting [9], 95 % of control under setting [10] and 99 % of control under setting [11].

On to `Nc1nc2ncc(CNc3ccc(C(=O)NC(CCC(=O)O)C(=O)O)cc3)nc2c(=O)[nH]1` (stereo not given), for which the T/C under setting [1] is 96 % of control; the T/C under setting [2] was 91 % of control; the T/C under setting [3] was 108 % of control; the T/C under setting [9] was 96 % of control; the T/C under setting [10] is 101 % of control.

As to `COc1cc2cc(c1Cl)N1CC(=O)C(C)(O)C(=O)N(C)C(C)C(=O)OC(CC1=O)C1(C)OC1C(C)C1CC(O)(NC(=O)O1)C(OC)/C=C\C=C(\C)C2OC` (stereo not given), the T/C is 109 % of control (dose: 4.0 micrograms/kg/injection, schedule: Q01DX009 (ip), vehicle: distilled water + alcohol); 93 % of control (dose: 8.0 micrograms/kg/injection, schedule: Q01DX009 (ip), vehicle: distilled water + alcohol); 111 % of control (dose: 16.0 micrograms/kg/injection, schedule: Q01DX009 (ip), vehicle: distilled water + alcohol); 95 % of control (dose: 32.0 micrograms/kg/injection, schedule: Q01DX009 (ip), vehicle: distilled water + alcohol).

With `CN(CN1C(=O)CCC1=O)CN1C(=O)CCC1=O`, the T/C by setting is: under setting [3], 98 % of control; under setting [9], 101 % of control; under setting [10], 105 % of control; under setting [11], 115 % of control.

Turning to `COCCOC(=O)Cc1ccc(OC)c(OC)c1`, the T/C is 108 % of control under setting [2], 98 % of control under setting [3], 104 % of control under setting [9] and 87 % of control under setting [12].
